Results as given in patent US7459482B2, “Agent for treatment of cisplatin-resistant cancer” (Dainippon Sumitomo Pharma Co., Ltd., priority 2000, dated 2008).

Test system: H4-II-E/CDDP cells
Assay: Cell proliferation inhibitory effects after treating for 7 days, WST-1 assay; resistance of H4-II-E/CDDP cells in comparison with H4-II-E cells
Assay type: cell-based, rat
Settings: for resistance of H4-II-E/CDDP cells to the drug: H4-II-E/CDDP cells vs H4-II-E cells
Method: Rat hepatic cancer H4-II-E was obtained from Dainippon Pharmaceutical Co., Ltd. The H4-II-E cells were cultured in MEM medium, during which the concentration of CDDP was increased stepwise from 0.1 μg/ml to 1.0 μg/ml over a period of about one year, by which method, the CDDP resistant cell line (H4-II-E/CDDP) was prepared. The cells used in the experiment were those obtained by subculturing in a CDDP-containing MEM medium (CDDP 1.0 μg/ml) in vitro.
The cell proliferation inhibitory effects of cisplatin to H4-II-E cells and H4-II-E/CDDP cells after treating for 7 days were evaluated by WST-1 assay.

| Compound | resistance of H4-II-E/CDDP cells in comparison with H4-II-E cells (7 days treatment, WST-1 assay) | resistance of H4-II-E/CDDP cells to the drug |
| --- | --- | --- |
| N.N.[Cl][Pt][Cl] [cisplatin, Cisplatin] | about 10 folds | – |
| COc1cc([C@@H]2c3cc4c(cc3[C@@H](O[C@@H]3O[C@@H]5CO[C@@H](C)O[C@H]5[C@H](O)[C@H]3O)[C@H]3COC(=O)[C@H]23)OCO4)cc(OC)c1O [etoposide] | – | did not show any resistance |
| COc1cccc2c1C(=O)c1c(O)c3c(c(O)c1C2=O)C[C@@](O)(C(=O)CO)C[C@@H]3O[C@H]1C[C@H](N)[C@H](O)[C@H](C)O1 [doxorubicin] | – | did not show any resistance |
